Reference: paper PMC2483479 (Acta Crystallographica Section D: Biological Crystallography, 2007)

T1: E. coli KAS I (Escherichia coli, UniProt P0A953)
T1 sequence (P0A953 1-406): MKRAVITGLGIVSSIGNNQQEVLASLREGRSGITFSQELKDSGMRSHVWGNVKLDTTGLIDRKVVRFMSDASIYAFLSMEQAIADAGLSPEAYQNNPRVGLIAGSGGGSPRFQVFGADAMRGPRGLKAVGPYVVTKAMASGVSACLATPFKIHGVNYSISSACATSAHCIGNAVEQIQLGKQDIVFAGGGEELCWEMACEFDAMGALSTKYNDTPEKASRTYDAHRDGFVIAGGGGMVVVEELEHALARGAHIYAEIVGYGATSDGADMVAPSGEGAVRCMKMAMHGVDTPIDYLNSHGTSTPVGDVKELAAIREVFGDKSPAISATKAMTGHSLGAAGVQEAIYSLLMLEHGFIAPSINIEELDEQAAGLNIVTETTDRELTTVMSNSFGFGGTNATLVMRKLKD

B1: Escherichia coli β-ketoacyl-ACP synthase I (KAS I) (enzyme)
chain: MKRAVITGLGIVSSIGNNQQEVLASLREGRSGITFSQELKDSGMRSHVWGNVKLDTTGLIDRKVVRFMSDASIYAFLSMEQAIADAGLSPEAYQNNPRVGLIAGSGGGSPRFQVFGADAMRGPRGLKAVGPYVVTKAMASGVSACLATPFKIHGVNYSISSACATSAHCIGNAVEQIQLGKQDIVFAGGGEELCWEMACEFDAMGALSTKYNDTPEKASRTYDAHRDGFVIAGGGGMVVVEELEHALARGAHIYAEIVGYGATSDGADMVAPSGEGAVRCMKMAMHGVDTPIDYLNSHGTSTPVGDVKELAAIREVFGDKSPAISATKAMTGHSLGAAGVQEAIYSLLMLEHGFIAPSINIEELDEQAAGLNIVTETTDRELTTVMSNSFGFGGTNATLVMRKLKD

Assays:
E. coli KAS I = biological target: T1, E. coli KAS I; test: X-ray crystal structure; format: binding; conditions: 0.3 mM thiolactomycin, 2.3 M ammonium sulfate, 0.1 M Tris-HCl pH 7.5, 3% DMSO; active site
crystal structure = biological target: the molecule itself; test: crystal structure

Molecule	X-ray crystal structure (crystal soaking) (E. coli KAS I)	binding result (crystal structure)
C=C/C(C)=C/[C@@]1(C)SC(=O)C(C)=C1O [thiolactomycin]	clearly confirmed binding of thiolactomycin at the active site	
B1		binds
